Laboratory results from ChEMBL document CHEMBL1201862, “PubChem BioAssay data set” (2004).
Where “and” joins values, the source holds several entries; their conditions need not be identical. Equal entries are not always repeated.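 Grown in 96-well plates, cells were treated for 48 hours with each compound at five concentrations. Insufficient inhibition: endpoint recorded as highest concentration tested. The concentration for 50% growth inhibition is given as GI50.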 Calls of active or inactive are those of the source. No stated cut-off is given here; in the data, active = GI50 up to about 1.1 µM and inactive = higher.

Key:
Assay in all cases: NCI tumour cell line growth inhibition, 48 h
[1] = system: DU-145
[2] = system: NCI-H522
[3] = system: NCI-H226
[4] = system: HCT-116
[5] = system: IGROV-1
[6] = system: HOP-92
[7] = system: OVCAR-8
[8] = system: CCRF-CEM
[9] = system: OVCAR-5
[10] = system: MOLT-4
[11] = system: MDA-N
[12] = system: HOP-62
[13] = system: OVCAR-3
[14] = system: SR
[15] = system: U-251
[16] = system: RPMI-8226
[17] = system: OVCAR-4
[18] = system: HL-60
[19] = system: PC-3
[20] = system: SF-268
[21] = system: MDA-MB-435
[22] = system: SW-620
[23] = system: SK-MEL-5
[24] = system: SNB-19
[25] = system: SF-539
[26] = system: Malme-3M
[27] = system: 786-0
[28] = system: MCF7
[29] = system: A549
[30] = system: NCI-H23
[31] = system: BT-549
[32] = system: MDA-MB-231
[33] = system: HCC 2998
[34] = system: SK-MEL-28
[35] = system: A498
[36] = system: KM12
[37] = system: CAKI-1
[38] = system: HT-29
[39] = system: HCT-15
[40] = system: K562
[41] = system: Hs-578T
[42] = system: UACC-62
[43] = system: SN12C
[44] = system: UACC-257
[45] = system: UO-31
[46] = system: M14
[47] = system: LOX IMVI
[48] = system: RXF 393
[49] = system: SNB-75
[50] = system: TK-10
[51] = system: NCI-H460
[52] = system: NCI/ADR-RES
[53] = system: SF-295
[54] = system: ACHN
[55] = system: COLO 205
[56] = system: EKVX
[57] = system: SK-MEL-2
[58] = system: T47D
[59] = system: SK-OV-3

For `O=C1CC(CC(O)[C@@H]2CCCC[C@@H]2O)CC(=O)N1c1ccccc1` (some centres undefined), the GI50 [1] was > 100 µM (inactive), the GI50 [2] was > 100 µM (inactive) and the GI50 [3] was > 100 µM (inactive). For the same compound, the GI50 [4] was > 100 µM (inactive), the GI50 [5] was > 100 µM (inactive) and the GI50 [6] was 83.8 µM (inactive). The GI50 [7] was > 100 µM (inactive), the GI50 [8] was > 100 µM (inactive) and the GI50 [9] was > 100 µM (inactive). The GI50 [10] was > 100 µM (inactive), the GI50 [11] was > 100 µM (inactive) and the GI50 [12] was > 100 µM (inactive). For the same compound, the GI50 [13] was > 100 µM (inactive), the GI50 [14] was > 100 µM (inactive) and the GI50 [15] was > 100 µM (inactive). For the same compound, the GI50 [16] was > 100 µM (inactive), the GI50 [17] was > 100 µM (inactive) and the GI50 [18] was > 100 µM (inactive). The GI50 [19] was > 100 µM (inactive), the GI50 [20] was > 100 µM (inactive) and the GI50 [21] was > 100 µM (inactive). For the same compound, the GI50 [22] was > 100 µM (inactive), the GI50 [23] was > 100 µM (inactive) and the GI50 [24] was > 100 µM (inactive). The GI50 [25] was > 100 µM (inactive), the GI50 [26] was > 100 µM (inactive) and the GI50 [27] was > 100 µM (inactive). The GI50 [28] was > 100 µM (inactive), the GI50 [29] was > 100 µM (inactive) and the GI50 [30] was > 100 µM (inactive). For the same compound, the GI50 [31] was > 100 µM (inactive), the GI50 [32] was > 100 µM (inactive) and the GI50 [33] was > 100 µM (inactive). For the same compound, the GI50 [34] was > 100 µM (inactive), the GI50 [35] was > 100 µM (inactive) and the GI50 [36] was > 100 µM (inactive). For the same compound, the GI50 [37] was > 100 µM (inactive), the GI50 [38] was > 100 µM (inactive) and the GI50 [39] was greater than 100 µM. For the same compound, the GI50 [40] was > 100 µM (inactive), the GI50 [41] was > 100 µM (inactive) and the GI50 [42] was > 100 µM (inactive). For the same compound, the GI50 [43] was > 100 µM (inactive), the GI50 [44] was > 100 µM (inactive) and the GI50 [45] was > 100 µM (inactive). For the same compound, the GI50 [46] was > 100 µM (inactive), the GI50 [47] was > 100 µM (inactive) and the GI50 [48] was > 100 µM (inactive). The GI50 [49] was > 100 µM (inactive), the GI50 [50] was > 100 µM (inactive) and the GI50 [51] was > 100 µM (inactive). For the same compound, the GI50 [52] was > 100 µM (inactive), the GI50 [53] was > 100 µM (inactive) and the GI50 [54] was > 100 µM (inactive).
In the case of `O=C(OCc1ccccc1)C(Cc1ccc(OCc2ccccc2)cn1)NC(=O)C(F)(F)F` (centres undefined), the GI50 [1] is reported as > 100 µM (inactive), the GI50 [2] is reported as 79.8 µM (inactive) and the GI50 [3] is reported as > 100 µM (inactive). For the same compound, the GI50 [4] was > 100 µM (inactive), the GI50 [5] was > 100 µM (inactive) and the GI50 [55] was 27.4 µM (inactive). The GI50 [6] was > 100 µM (inactive), the GI50 [7] was > 100 µM (inactive) and the GI50 [8] was > 10 µM (inactive). For the same compound, the GI50 [9] was > 100 µM (inactive), the GI50 [10] was 33.7 µM (inactive) and the GI50 [11] was > 100 µM (inactive). For the same compound, the GI50 [12] was > 100 µM (inactive), the GI50 [13] was 71.3 µM (inactive) and the GI50 [14] was 86.9 µM (inactive). The GI50 [15] was 72.3 µM (inactive), the GI50 [16] was 92.5 µM (inactive) and the GI50 [17] was > 100 µM (inactive). The GI50 [18] was 56.2 µM (inactive), the GI50 [19] was > 100 µM (inactive) and the GI50 [20] was 98.2 µM (inactive). For the same compound, the GI50 [21] was 92.9 µM (inactive), the GI50 [22] was > 100 µM (inactive) and the GI50 [23] was 35.4 µM (inactive). For the same compound, the GI50 [24] was > 100 µM (inactive), the GI50 [25] was > 100 µM (inactive) and the GI50 [56] was > 100 µM (inactive). The GI50 [26] was > 100 µM (inactive), the GI50 [27] was > 100 µM (inactive) and the GI50 [28] was > 10 µM (inactive). For the same compound, the GI50 [29] was 62.8 µM (inactive), the GI50 [30] was 86.9 µM (inactive) and the GI50 [31] was > 100 µM (inactive). The GI50 [32] was > 100 µM (inactive), the GI50 [33] was > 100 µM (inactive) and the GI50 [34] was > 100 µM (inactive). For the same compound, the GI50 [35] was > 100 µM (inactive), the GI50 [36] was > 100 µM (inactive) and the GI50 [37] was > 100 µM (inactive). For the same compound, the GI50 [38] was 57.9 µM (inactive), the GI50 [39] was 46.3 µM and the GI50 [40] was 42.8 µM (inactive). The GI50 [41] was > 100 µM (inactive), the GI50 [43] was > 100 µM (inactive) and the GI50 [44] was > 100 µM (inactive). For the same compound, the GI50 [45] was 65.5 µM (inactive), the GI50 [47] was 92.3 µM (inactive) and the GI50 [48] was > 100 µM (inactive). For the same compound, the GI50 [49] was 3.01 µM (inactive), the GI50 [50] was > 100 µM (inactive) and the GI50 [51] was > 100 µM (inactive). For the same compound, the GI50 [52] was > 100 µM (inactive), the GI50 [53] was > 100 µM (inactive) and the GI50 [54] was > 100 µM (inactive).
`Cc1cc(O)c2c(c1)C(=O)C=CC2=O` [RAMENTACEONE] was tested, and the GI50 [1] was 19.7 µM (inactive) and 16.4 µM (inactive), the GI50 [3] was 18.6 µM (inactive) and 17.8 µM (inactive) and the GI50 [4] was 4.34 µM (inactive) and 3.72 µM (inactive). The GI50 [5] was 14.1 µM (inactive) and 9.38 µM (inactive), the GI50 [55] was 3.92 µM (inactive) and 2.74 µM (inactive) and the GI50 [57] was 14.9 µM (inactive) and 19.1 µM (inactive). The GI50 [8] was 121 nM (active) and 212 nM (active), the GI50 [9] was 19.4 µM (inactive) and 18 µM (inactive) and the GI50 [10] was 424 nM (active) and 298 nM (active). For the same compound, the GI50 [11] was 2.21 µM (inactive) and 3.56 µM (inactive), the GI50 [12] was 19.5 µM (inactive) and 21 µM (inactive) and the GI50 [13] was 1.66 µM (inactive) and 2.27 µM (inactive). For the same compound, the GI50 [19] was 11.2 µM (inactive) and 17.7 µM (inactive), the GI50 [20] was 17.7 µM (inactive) and 10.4 µM (inactive) and the GI50 [24] was 20.6 µM (inactive) and 17.1 µM (inactive). For the same compound, the GI50 [25] was 16.9 µM (inactive) and 14.9 µM (inactive), the GI50 [28] was 7.05 µM (inactive) and 4.79 µM (inactive) and the GI50 [29] was 25.4 µM (inactive) and 19.1 µM (inactive). The GI50 [30] was 8.39 µM (inactive) and 12.4 µM (inactive), the GI50 [32] was 5.06 µM (inactive) and 9.31 µM (inactive) and the GI50 [33] was 11.2 µM (inactive) and 15.6 µM (inactive). For the same compound, the GI50 [35] was 22 µM (inactive) and 31.4 µM (inactive), the GI50 [36] was 14.1 µM (inactive) and 16.1 µM (inactive) and the GI50 [38] was 7.05 µM (inactive) and 5.74 µM (inactive). For the same compound, the GI50 [58] was 2.65 µM (inactive) and 3.11 µM (inactive), the GI50 [41] was 19.4 µM (inactive) and 15.7 µM (inactive) and the GI50 [42] was 4.72 µM (inactive) and 7.38 µM (inactive). For the same compound, the GI50 [59] was 27.9 µM (inactive) and 28 µM (inactive), the GI50 [43] was 7.76 µM (inactive) and 12.1 µM (inactive) and the GI50 [44] was 5.25 µM (inactive) and 4.05 µM (inactive). For the same compound, the GI50 [45] was 4.69 µM (inactive) and 2.91 µM (inactive), the GI50 [46] was 6.68 µM (inactive) and 8.77 µM (inactive) and the GI50 [47] was 3.04 µM (inactive) and 5.55 µM (inactive). For the same compound, the GI50 [48] was 4.41 µM (inactive) and 2.7 µM (inactive), the GI50 [49] was 15.5 µM (inactive) and 16.6 µM (inactive) and the GI50 [51] was 19.3 µM (inactive) and 16.3 µM (inactive). The GI50 [52] was 8.15 µM (inactive) and 15.9 µM (inactive) and the GI50 [53] was 16.5 µM (inactive) and 17.4 µM (inactive).
With `c1cc2nnc1SCCSCCSCCSc1ccc(nn1)SCCSCCSCCS2` the GI50 [2] was > 100 µM (inactive), the GI50 [5] was > 100 µM (inactive) and the GI50 [55] was > 100 µM (inactive). For the same compound, the GI50 [57] was > 100 µM (inactive), the GI50 [6] was 57.4 µM (inactive) and the GI50 [7] was > 100 µM (inactive). For the same compound, the GI50 [12] was 44.9 µM (inactive), the GI50 [13] was > 100 µM (inactive) and the GI50 [14] was > 100 µM (inactive). For the same compound, the GI50 [17] was > 100 µM (inactive), the GI50 [19] was > 100 µM (inactive) and the GI50 [20] was > 100 µM (inactive). For the same compound, the GI50 [22] was > 100 µM (inactive), the GI50 [23] was > 100 µM (inactive) and the GI50 [56] was > 100 µM (inactive). For the same compound, the GI50 [26] was > 100 µM (inactive), the GI50 [29] was > 100 µM (inactive) and the GI50 [32] was > 100 µM (inactive). For the same compound, the GI50 [38] was > 100 µM (inactive), the GI50 [58] was > 100 µM (inactive) and the GI50 [39] was greater than 100 µM. For the same compound, the GI50 [41] was 64.7 µM (inactive), the GI50 [42] was > 100 µM (inactive) and the GI50 [59] was > 100 µM (inactive). The GI50 [43] was > 100 µM (inactive), the GI50 [44] was > 100 µM (inactive) and the GI50 [46] was > 100 µM (inactive). For the same compound, the GI50 [47] was > 100 µM (inactive), the GI50 [49] was 45.7 µM (inactive) and the GI50 [51] was > 100 µM (inactive). The GI50 [52] was > 100 µM (inactive), the GI50 [53] was > 100 µM (inactive) and the GI50 [54] was > 100 µM (inactive).
